Assay results from ChEMBL document CHEMBL5370624 (J Med Chem, 2023).
Activity calls are given as the source filed them. No cut-off for these calls is given here.

Legend:
Toll-like receptor 4 [1] = target: T1, Toll-like receptor 4 (Homo sapiens, UniProt O00206); test: Agonist activity at human TLR4 in human HEK-Blue hTLR4 cells assessed as NF-kappaB activation incubated for 48 hrs by SEAP reporter gene based Quanti-blue assay; format: cell-based
Toll-like receptor 4 [2] = target: T2, Toll-like receptor 4 (Mus musculus, UniProt Q9QUK6); test: Agonist activity at TLR4 in mouse RAW264.7 cells assessed as induction of MIP-1beta release incubated for 24 hrs by ELISA; format: cell-based
T2 sequence (Q9QUK6 whole entry): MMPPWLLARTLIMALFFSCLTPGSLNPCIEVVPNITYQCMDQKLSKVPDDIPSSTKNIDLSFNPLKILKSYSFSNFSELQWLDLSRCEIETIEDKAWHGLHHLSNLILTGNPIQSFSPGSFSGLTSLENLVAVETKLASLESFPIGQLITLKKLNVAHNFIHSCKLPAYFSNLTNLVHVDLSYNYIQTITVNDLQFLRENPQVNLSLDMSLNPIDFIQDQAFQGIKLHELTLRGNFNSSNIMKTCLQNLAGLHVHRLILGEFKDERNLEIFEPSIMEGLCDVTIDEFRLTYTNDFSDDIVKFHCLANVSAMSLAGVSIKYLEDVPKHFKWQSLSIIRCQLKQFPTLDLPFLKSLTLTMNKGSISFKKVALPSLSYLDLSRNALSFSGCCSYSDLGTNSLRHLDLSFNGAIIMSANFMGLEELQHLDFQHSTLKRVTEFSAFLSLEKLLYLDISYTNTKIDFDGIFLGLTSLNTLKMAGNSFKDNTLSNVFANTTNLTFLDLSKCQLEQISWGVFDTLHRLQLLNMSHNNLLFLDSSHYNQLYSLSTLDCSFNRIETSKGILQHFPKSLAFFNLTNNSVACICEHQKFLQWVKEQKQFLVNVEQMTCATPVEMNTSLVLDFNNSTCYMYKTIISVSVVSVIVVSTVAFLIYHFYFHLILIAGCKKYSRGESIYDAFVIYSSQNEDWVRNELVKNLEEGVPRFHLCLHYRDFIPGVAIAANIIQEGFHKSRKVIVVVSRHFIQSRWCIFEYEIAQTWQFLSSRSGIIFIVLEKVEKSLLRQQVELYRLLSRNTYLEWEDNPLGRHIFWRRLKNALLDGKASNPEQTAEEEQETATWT

[3] = Aqueous stability of the compound assessed as drug degradation at 40 degreeC and measured after 3 months by LC-MS analysis; format: physicochemical; conditions: buffer, 2190 h
Toll-like receptor 4 [4] = target: T2, Toll-like receptor 4; test: Agonist activity at mouse TLR4 in human HEK-Blue mTLR4 cells assessed as NF-kappaB activation incubated for 48 hrs by SEAP reporter gene based Quanti-blue assay; format: cell-based
Toll-like receptor 4 [5] = target: T1, Toll-like receptor 4; test: Agonist activity at TLR4 in human MONO-MAC-6 cells assessed as induction of MIP-1beta release incubated for 24 hrs by ELISA; format: cell-based
Toll-like receptor 4 [6] = target: T1, Toll-like receptor 4; test: Agonist activity at TLR4 in human PBMC cells assessed as induction of MIP-1beta release incubated for 20 hrs by ELISA; format: cell-based
Toll-like receptor 4 [7] = target: T1, Toll-like receptor 4; test: Agonist activity at TLR4 in human PBMC cells assessed as induction of TNFalpha release incubated for 20 hrs by ELISA; format: cell-based
Toll-like receptor 4 [8] = target: T1, Toll-like receptor 4; test: Agonist activity at TLR4 in human PBMC cells assessed as induction of IL-1beta release incubated for 20 hrs by ELISA; format: cell-based
Toll-like receptor 4 [9] = target: T1, Toll-like receptor 4; test: Agonist activity at TLR4 in human PBMC cells assessed as induction of RANTES release incubated for 20 hrs by ELISA; format: cell-based
Mus musculus [10] = species on record: Mus musculus; test: Immuno-adjuvant activity in H3N2-split A/Victoria/210/2009 influenza virus-immunized BALB/c mouse model assessed as increase in influenza specific serum IgG titer level at 0.001 to 0.1 ug,IM and measured after 14 days by ELISA; format: functional, organism-based; conditions: dose 0.001-0.1 µg, time 14.0 day
Mus musculus [11] = species on record: Mus musculus; test: Immuno-adjuvant activity in H3N2-split A/Victoria/210/2009 influenza virus-immunized BALB/c mouse model assessed as increase in influenza specific serum IgG1 titer level at 0.001 to 0.1 ug,IM and measured after 14 days by ELISA; format: functional, organism-based; conditions: dose 0.001-0.1 µg, time 14.0 day
Mus musculus [12] = test: Immuno-adjuvant activity in H3N2-split A/Victoria/210/2009 influenza virus-immunized BALB/c mouse model assessed as increase in influenza specific serum IgG titer level at 0.001 to 0.1 ug,IM administered on day 0 and 14 and measured after 28 days by ELISA; format: functional, organism-based; conditions: dose 0.001-0.1 µg, time 28.0 day
Mus musculus [13] = test: Immuno-adjuvant activity in H3N2-split A/Victoria/210/2009 influenza virus-immunized BALB/c mouse model assessed as increase in influenza specific serum IgG1 titer level at 0.001 to 0.1 ug,IM administered on day 0 and 14 and measured after 28 days by ELISA; format: functional, organism-based; conditions: dose 0.001-0.1 µg, time 28.0 day
Mus musculus [14] = test: Immuno-adjuvant activity in H3N2-split A/Victoria/210/2009 influenza virus-immunized BALB/c mouse model assessed as increase in influenza specific serum IgG2a titer level at 0.001 to 0.1 ug,IM administered on day 0 and 14 and measured after 28 days by ELISA; format: functional, organism-based; conditions: dose 0.001-0.1 µg, time 28.0 day
[15] = Toxicity in H3N2-split A/Victoria/210/2009 influenza virus-immunized BALB/c mouse model assessed as abnormality at 0.001 to 0.1 ug,IM administered on day 0 and 14 and measured after 28 days; conditions: in vivo, 672 h, dose 0.001-0.1 µg, time 28 day
[16] = Toxicity in H3N2-split A/Victoria/210/2009 influenza virus-immunized BALB/c mouse model assessed as reactogenicity at 0.001 to 0.1 ug,IM administered on day 0 and 14 and measured after 28 days; conditions: in vivo, 672 h, dose 0.001-0.1 µg, time 28 day
Mus musculus [17] = test: Immuno-adjuvant activity in H3N2-A/HK/68 influenza virus-immunized BALB/c mouse model assessed as increase in survival rate at 10 ug,INH administered 48hrs prior to influenza challenge and measured after 18 days; format: functional; conditions: dose 10 µg, time 18 day
Mus musculus [18] = test: Immuno-adjuvant activity in H3N2-A/HK/68 influenza virus-immunized BALB/c mouse model assessed as increase in survival rate at 1 ug,INH administered 48hrs prior to influenza challenge and measured after 18 days; format: functional; conditions: dose 1 µg, time 18 day
[19] = Toxicity in H3N2-A/HK/68 influenza virus-immunized BALB/c mouse model assessed as body weight change at 1 to 10 ug,INH administered 48hrs prior to influenza challenge and measured after 18 days; conditions: in vivo, inhaled_or_intranasal, 432 h, dose 1-10 µg, time 18 day
[20] = Toxicity in H3N2-A/HK/68 influenza virus-immunized BALB/c mouse model assessed as disease index at 1 to 10 ug,INH administered 48hrs prior to influenza challenge and measured after 18 days; conditions: in vivo, inhaled_or_intranasal, 432 h, dose 1-10 µg, time 18 day
[21] = Toxicity in H3N2-A/HK/68 influenza virus-immunized BALB/c mouse model assessed as change in body temperature at 1 to 10 ug,INH administered 48hrs prior to influenza challenge and measured after 18 days; conditions: in vivo, inhaled_or_intranasal, 432 h, dose 1-10 µg, time 18 day

T1 sequence (O00206 whole entry): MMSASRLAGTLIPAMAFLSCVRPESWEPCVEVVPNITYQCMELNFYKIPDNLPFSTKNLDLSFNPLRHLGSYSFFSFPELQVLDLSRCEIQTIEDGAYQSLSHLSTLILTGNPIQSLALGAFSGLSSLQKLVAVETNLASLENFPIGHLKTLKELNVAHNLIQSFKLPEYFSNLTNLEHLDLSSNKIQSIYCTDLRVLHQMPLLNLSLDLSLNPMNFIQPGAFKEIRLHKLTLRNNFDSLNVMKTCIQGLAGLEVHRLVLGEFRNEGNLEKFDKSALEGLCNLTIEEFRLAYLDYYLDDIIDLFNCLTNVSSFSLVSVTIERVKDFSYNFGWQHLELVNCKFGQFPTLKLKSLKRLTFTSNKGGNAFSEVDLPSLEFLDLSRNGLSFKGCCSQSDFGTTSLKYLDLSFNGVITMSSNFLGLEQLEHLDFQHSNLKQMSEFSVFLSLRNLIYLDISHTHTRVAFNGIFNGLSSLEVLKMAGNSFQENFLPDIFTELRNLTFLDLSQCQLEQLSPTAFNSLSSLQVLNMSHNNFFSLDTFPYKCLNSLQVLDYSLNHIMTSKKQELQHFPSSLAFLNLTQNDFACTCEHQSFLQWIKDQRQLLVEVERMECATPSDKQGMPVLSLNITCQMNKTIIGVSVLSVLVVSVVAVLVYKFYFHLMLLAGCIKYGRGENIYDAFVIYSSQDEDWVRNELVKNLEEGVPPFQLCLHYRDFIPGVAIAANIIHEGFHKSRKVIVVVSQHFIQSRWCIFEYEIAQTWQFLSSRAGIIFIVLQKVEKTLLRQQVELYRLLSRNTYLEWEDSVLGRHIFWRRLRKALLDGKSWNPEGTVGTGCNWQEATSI

## CCCCCCCCCCC[C@H](CC(=O)N[C@H]1[C@H](OC[C@H](NC(=O)C[C@@H](CCCCCCCCCCC)OCCCCCCCCCC)C(=O)O)O[C@H](CO)[C@@H](OP(=O)(O)O)[C@@H]1OC(=O)C[C@@H](CCCCCCCCCCC)OCCCCCCCCCC)OCCCCCCCCCC
Toll-like receptor 4 [1]
  EC50: 0.93 nM
Toll-like receptor 4 [2]
  EC50: 0.015 nM
[3]
  Stability: Stable
Toll-like receptor 4 [4]
  EC50: 0.005 nM
Toll-like receptor 4 [5]
  EC50: 0.06 nM
Toll-like receptor 4 [6]
  EC50: 0.01 nM
Toll-like receptor 4 [7]
  EC50: 0.26 nM
Toll-like receptor 4 [8]
  EC50: 0.028 nM
Toll-like receptor 4 [9]
  EC50: 0.014 nM
Mus musculus [10]
  Activity: Dose-Dependent Effect
Mus musculus [11]
  Activity: Dose-Dependent Effect
Mus musculus [12]
  Activity: Active
Mus musculus [13]
  Activity: Active
Mus musculus [14]
  Activity: Active
[15]
  Activity: Non-Toxic
[16]
  Activity: Non-Toxic
Mus musculus [17]
  Survival: 100%
Mus musculus [18]
  Survival: 60%
[19]
  Activity: Non-Toxic
[20]
  Activity: Non-Toxic
[21]
  Activity: Non-Toxic
